Tests used:
GST-TYK2(888-1187) = biological target: T1, GST-TYK2(888-1187) (Homo sapiens, UniProt P29597); assay: EPK JAK-family kinases profiling assay (Caliper mobility shift), TYK2; format: biochemical; conditions: ATP 30 μM, 40 nM kinase
T1 construct: GST-TYK2(888-1187); made in house
T1 sequence (P29597 888-1187): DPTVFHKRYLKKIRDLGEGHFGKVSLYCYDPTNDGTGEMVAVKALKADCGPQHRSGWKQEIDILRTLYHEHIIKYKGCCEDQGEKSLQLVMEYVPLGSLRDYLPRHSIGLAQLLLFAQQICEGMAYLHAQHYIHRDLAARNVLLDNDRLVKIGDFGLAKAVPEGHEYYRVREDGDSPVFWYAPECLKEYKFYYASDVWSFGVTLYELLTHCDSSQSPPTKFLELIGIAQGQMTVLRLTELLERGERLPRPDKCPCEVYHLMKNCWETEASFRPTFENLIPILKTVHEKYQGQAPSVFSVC
Description: All four kinases of the JAK-family kinases were used as purified recombinant GST-fusion proteins, containing the active kinase domains. GST-JAK1(866-1154), GST-JAK3(811-1124), and GST-TYK2(888-1187) were expressed and purified by affinity chromatography at the EPK biology unit. GST-JAK2(808-1132) was purchased from Invitrogen (Carlsbad, USA, #4288).
The kinase assays were based on the Caliper mobility shift assay using the LabChip 3000 systems. This technology is similar to capillary electrophoresis and uses charge driven separation of substrate and product in a microfluidic chip.
All kinase reactions were performed in 384 well microtiter plates in a total reaction volume of 18 μl. The assay plates were prepared with 0.1 μl per well of test compound in the appropriate test concentration, as described under the section “preparation of compound dilutions”. The reactions were started by combining 9 μl of substrate mix (consisting of peptide and ATP) with 9 μl of kinase dilution. The reactions were incubated for 60 minutes at 30° C. and stopped by adding 70 μl of stop buffer (100 mM Hepes, 5% DMSO, 0.1% Coating reagent, 10 mM EDTA, 0.015% Brij 35).
Fluorescently labeled synthetic peptides were used as substrates in all reactions. […] Specific assay conditions are described in Table 1:
The terminated reactions were transferred to the Caliper LabChip 3000 reader and the turnover of each reaction was measured by determining the substrate/product ratio.
Test compounds were dissolved in DMSO (10 mM) and transferred into 1.4 mL flat bottom or V-shaped Matrix tubes carrying a unique 2D matrix chip by individual compound hubs. The numbers of these chips were distinctively linked to the individual compound identification numbers. The stock solutions were stored at −20° C. if not used immediately. For the test procedure the vials were defrosted and identified by a scanner whereby a working sheet was generated that guided the subsequent working steps.
Compound dilutions were made in 96 well plates. This format enabled the assay of maximally 40 individual test compounds at 8 concentrations (single points) including 4 reference compounds. The dilution protocol included the production of pre-dilution plates, master plates and assay plates:
Pre-dilution plates: 96 polypropylene well plates were used as pre-dilution plates. A total of 4 pre-dilution plates were prepared including 10 test compounds each on the plate positions A1-A10, one standard compound at A11 and one DMSO control at A12. All dilution steps were done on a HamiltonSTAR robot.
Master plates: 100 μL of individual compound dilutions including standard compound and controls of the 4 “pre-dilution plates” were transferred into a 384 “master plate” including the following concentrations 1′820, 564, 182, 54.6, 18.2, 5.46, 1.82 and 0.546 μM, respectively in 90% of DMSO.
Assay plates: Identical assay plates were then prepared by pipetting 100 nL each of compound dilutions of the master plates into 384-well “assay plates”. […] The preparation of the master plates were handled by the Matrix PlateMate Plus robot and replication of assay plates by the HummingBird robot.

GST-JAK2(808-1132) = biological target: T2, GST-JAK2(808-1132) (Homo sapiens, UniProt O60674); assay: EPK JAK-family kinases profiling assay (Caliper mobility shift), JAK2; format: biochemical; conditions: ATP 20 μM, 1.8 nM kinase
T2 construct: GST-JAK2(808-1132); purchased Invitrogen (Carlsbad, USA) #4288
Outline: (§1)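 Turnover was read as substrate/product ratio after mobility-shift capillary-like separation of each reaction, run for 60 min at 30 °C with GST-tagged kinase domain, labelled peptide and ATP, and terminated with EDTA stop buffer.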

[1] = system: JAK/STAT pathway (JAK1/JAK2-dependent nuclear translocation of STAT1-GFP); assay: Inhibition of the JAK/STAT pathway: IFN-γ stimulated nuclear translocation of STAT1-GFP in HT1080 fibrosarcoma cells; format: cell-based; conditions: Homo sapiens, HT-1080; HT1080 STAT1-GFP cells, 100 ng/ml IFN-γ 2 hours, compound added 30 min before; read-out: STAT1translo IC50
Outline: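 Readout is the nuclear-minus-cytoplasmic GFP-STAT1 intensity, imaged at 10× using Hoechst-defined nuclear masks over at least 1000 cells/well. Stably transfected HT1080 fibrosarcoma cells were pretreated 30 min with compound (final 0.003–10 μM, 0.1% DMSO) before IFN-γ challenge.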

GST-JAK1(866-1154) = biological target: T3, GST-JAK1(866-1154) (Homo sapiens, UniProt P23458); assay: EPK JAK-family kinases profiling assay (Caliper mobility shift), JAK1; format: biochemical; conditions: ATP 40 μM, 50 nM kinase
T3 construct: GST-JAK1(866-1154); made in house
Outline: as §1

T2 sequence (O60674 808-1132): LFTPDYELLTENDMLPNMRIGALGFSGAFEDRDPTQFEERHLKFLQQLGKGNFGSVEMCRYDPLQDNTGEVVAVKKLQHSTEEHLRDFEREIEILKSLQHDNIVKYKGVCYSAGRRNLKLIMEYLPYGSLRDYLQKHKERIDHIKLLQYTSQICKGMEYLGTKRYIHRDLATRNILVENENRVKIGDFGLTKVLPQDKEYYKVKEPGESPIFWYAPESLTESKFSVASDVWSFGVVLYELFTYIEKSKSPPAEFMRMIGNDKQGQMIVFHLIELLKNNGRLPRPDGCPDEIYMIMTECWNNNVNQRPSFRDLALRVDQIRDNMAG
T3 sequence (P23458 866-1154): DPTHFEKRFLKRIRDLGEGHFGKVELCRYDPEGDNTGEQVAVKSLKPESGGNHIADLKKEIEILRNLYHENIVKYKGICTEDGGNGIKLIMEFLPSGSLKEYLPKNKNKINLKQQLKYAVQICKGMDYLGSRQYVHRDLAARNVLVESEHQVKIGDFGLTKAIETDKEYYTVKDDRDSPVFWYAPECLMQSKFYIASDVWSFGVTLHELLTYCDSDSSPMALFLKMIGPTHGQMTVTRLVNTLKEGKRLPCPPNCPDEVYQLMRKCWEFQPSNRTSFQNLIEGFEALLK

Row | SMILES | IC50 (GST-TYK2(888-1187)) | IC50 (GST-JAK2(808-1132)) | IC50 [1] | IC50 (GST-JAK1(866-1154))
1 | Cc1cc(-c2cccc3ncc(-c4cnn(C5CCNCC5)c4)nc23)ccc1C(=O)N1CCOCC1 [Example 100, {2-Methyl-4-[3-(1-piperidin-4-yl-1H-pyrazol-4-yl)-quinoxalin-5-yl]-phenyl}-morpholin-4-yl-methanone] | 1200 nM | 130 nM | 12600 nM | 1400 nM
2 | CN1CCN(c2ccc(-c3cnc4cccc(-c5ccc(CN6CCS(=O)(=O)CC6)cc5)c4n3)cn2)CC1 [Example 109, 8-[4-(1,1-Dioxido-thiomorpholin-4-ylmethyl)-phenyl]-2-[6-(4-methyl-piperazin-1-yl)-pyridin-3-yl]-quinoxaline] | 360 nM | 24 nM | 3060 nM | 150 nM
3 | Cc1nn(C2CCNCC2)cc1-c1cnc2cccc(-c3cc(F)c(CN4CCOCC4)c(F)c3)c2n1 [Example 127, 8-(3,5-Difluoro-4-morpholin-4-ylmethyl-phenyl)-2-(3-methyl-1-piperidin-4-yl-1H-pyrazol-4-yl)-quinoxaline] | 38 nM | < 3 nM | 86 nM | 66 nM
4 | COC(=O)N1CCC(n2cc(-c3cnc4cccc(-c5cc(F)c(CN6CCOCC6)c(F)c5)c4n3)cn2)CC1 [Example 130, 4-{4-[8-(3,5-Difluoro-4-morpholin-4-ylmethyl-phenyl)-quinoxalin-2-yl]-pyrazol-1-yl}-piperidine-1-carboxylic acid methyl ester] | 200 nM | 3.4 nM | 163 nM | 150 nM
5 | Fc1cc(-c2cccc3ncc(-c4cnn(CC5CCNCC5)c4)nc23)cc(F)c1CN1CCOCC1 [Example 133, 8-(3,5-Difluoro-4-morpholin-4-ylmethyl-phenyl)-2-(1-piperidin-4-ylmethyl-1H-pyrazol-4-yl)-quinoxaline] | 750 nM | 5.4 nM | 840 nM | 550 nM
6 | CS(=O)(=O)c1ccc(-c2cccc3ncc(-c4cnn(C5CCNCC5)c4)nc23)cc1 [Example 144, 8-(4-Methanesulfonyl-phenyl)-2-(1-piperidin-4-yl-1H-pyrazol-4-yl)-quinoxaline] | 970 nM | 25 nM | 7660 nM | 960 nM
7 | Fc1cc(-c2cccc3ncc(-c4cnn(C5CCNCC5)c4)nc23)ccc1CN1CCOCC1 [Example 145, 8-(3-Fluoro-4-morpholin-4-ylmethyl-phenyl)-2-(1-piperidin-4-yl-1H-pyrazol-4-yl)-quinoxaline] | 300 nM | 10 nM | 685 nM | 250 nM
8 | Cc1cc(-c2cccc3ncc(-c4cnn(C5CCNCC5)c4)nc23)ccc1CN1CCOCC1 [Example 146, 8-(3-Methyl-4-morpholin-4-ylmethyl-phenyl)-2-(1-piperidin-4-yl-1H-pyrazol-4-yl)-quinoxaline] | 570 nM | 9.2 nM | 3390 nM | 840 nM

Second part, the compound after the results:

Row | IC50 (GST-TYK2(888-1187)) | IC50 (GST-JAK2(808-1132)) | IC50 [1] | IC50 (GST-JAK1(866-1154)) | SMILES
9 | 510 nM | 6.1 nM | 1350 nM | 240 nM | Fc1cc(-c2cccc3ncc(-c4cnn(CC5CCCNC5)c4)nc23)cc(F)c1CN1CCOCC1 (racemic) [Example 135, (rac)-8-(3,5-Difluoro-4-morpholin-4-ylmethyl-phenyl)-2-(1-piperidin-3-ylmethyl-1H-pyrazol-4-yl)-quinoxaline]
10 | 350 nM | 13 nM | 1730 nM | 130 nM | Cc1cc(-c2cnc3cccc(-c4cc(F)c(CN5CCOCC5)c(F)c4)c3n2)ccc1C(=O)NCCO [Example 120, 4-[8-(3,5-Difluoro-4-morpholin-4-ylmethyl-phenyl)-quinoxalin-2-yl]-N-(2-hydroxy-ethyl)-2-methyl-benzamide]
11 | 210 nM | < 3 nM | 369 nM | 310 nM | Cc1c(-c2cnc3cccc(-c4cc(F)c(CN5CCOCC5)c(F)c4)c3n2)cnn1C1CCNCC1 [Example 125, 8-(3,5-Difluoro-4-morpholin-4-ylmethyl-phenyl)-2-(5-methyl-1-piperidin-4-yl-1H-pyrazol-4-yl)-quinoxaline]
12 | 160 nM | < 3 nM | 196 nM | 130 nM | Fc1cc(-c2cccc3ncc(-c4cnn(C5CCN(C6CC6)CC5)c4)nc23)cc(F)c1CN1CCOCC1 [Example 128, 2-[1-(1-Cyclopropyl-piperidin-4-yl)-1H-pyrazol-4-yl]-8-(3,5-difluoro-4-morpholin-4-ylmethyl-phenyl)-quinoxaline]
13 | 96 nM | < 3 nM | 162 nM | 78 nM | O=C(C1CC1)N1CCC(n2cc(-c3cnc4cccc(-c5cc(F)c(CN6CCOCC6)c(F)c5)c4n3)cn2)CC1 [Example 129, Cyclopropyl-(4-{4-[8-(3,5-difluoro-4-morpholin-4-ylmethyl-phenyl)-quinoxalin-2-yl]-pyrazol-1-yl}-piperidin-1-yl)-methanone]
14 | 33 nM | < 3 nM | 90 nM | 50 nM | Cc1nn(C2CCN(C(=O)C(C)C)CC2)cc1-c1cnc2cccc(-c3cc(F)c(CN4CCOCC4)c(F)c3)c2n1 [Example 131, 1-(4-{4-[8-(3,5-Difluoro-4-morpholin-4-ylmethyl-phenyl)-quinoxalin-2-yl]-3-methyl-pyrazol-1-yl}-piperidin-1-yl)-2-methyl-propan-1-one]
15 | 260 nM | 4.6 nM | 532 nM | 290 nM | CC(C)(C)OC(=O)N1CCC(n2cc(-c3cnc4cccc(-c5cc(F)c(CN6CCOCC6)c(F)c5)c4n3)cn2)CC1 [Example 136, 4-{4-[8-(3,5-Difluoro-4-morpholin-4-ylmethyl-phenyl)-quinoxalin-2-yl]-pyrazol-1-yl}-piperidine-1-carboxylic acid tert-butyl ester]
16 | 110 nM | 3.4 nM | 730 nM | 73 nM | O=S1(=O)CCN(Cc2ccc(-c3cccc4ncc(-c5cnn(C6CCNCC6)c5)nc34)cc2)CC1 [Example 148, 8-[4-(1,1-Dioxido-thiomorpholin-4-ylmethyl)-phenyl]-2-(1-piperidin-4-yl-1H-pyrazol-4-yl)-quinoxaline]
17 | 900 nM | 51 nM | 9560 nM | 650 nM | Cc1cc(CN2CCS(=O)(=O)CC2)ccc1-c1cccc2ncc(-c3cnn(C4CCNCC4)c3)nc12 [Example 149, 8-[4-(1,1-Dioxido-thiomorpholin-4-ylmethyl)-2-methyl-phenyl]-2-(1-piperidin-4-yl-1H-pyrazol-4-yl)-quinoxaline]
18 | 830 nM | 30 nM | 4280 nM | 830 nM | c1cc(-c2ccc(CN3CCOCC3)cc2)c2nc(-c3cnn(C4CCNCC4)c3)cnc2c1 [Example 150, 8-(4-Morpholin-4-ylmethyl-phenyl)-2-(1-piperidin-4-yl-1H-pyrazol-4-yl)-quinoxaline]

Source: patent US8193189B2, “Quinoxaline derivatives as tyrosine kinase activity inhibitors” (Novartis AG, priority 2007, dated 2012)
